From ChEMBL document CHEMBL3414527, “Engineering potent and selective analogues of GpTx-1, a tarantula venom peptide antagonist of the Na(V)1.7 sodium channel” (J Med Chem, 2015)
Bridge positions count the residues as written; N and C are the ends. Peptide text beside a SMILES is read from it.

Legend:
[1] = biological target: T1, Sodium channel protein type 9 subunit alpha (Homo sapiens, UniProt Q15858); test: Inhibition of human NaV1.7 at -140 mV holding potential by whole-cell patch clamp assay
T1 sequence (Q15858 whole entry): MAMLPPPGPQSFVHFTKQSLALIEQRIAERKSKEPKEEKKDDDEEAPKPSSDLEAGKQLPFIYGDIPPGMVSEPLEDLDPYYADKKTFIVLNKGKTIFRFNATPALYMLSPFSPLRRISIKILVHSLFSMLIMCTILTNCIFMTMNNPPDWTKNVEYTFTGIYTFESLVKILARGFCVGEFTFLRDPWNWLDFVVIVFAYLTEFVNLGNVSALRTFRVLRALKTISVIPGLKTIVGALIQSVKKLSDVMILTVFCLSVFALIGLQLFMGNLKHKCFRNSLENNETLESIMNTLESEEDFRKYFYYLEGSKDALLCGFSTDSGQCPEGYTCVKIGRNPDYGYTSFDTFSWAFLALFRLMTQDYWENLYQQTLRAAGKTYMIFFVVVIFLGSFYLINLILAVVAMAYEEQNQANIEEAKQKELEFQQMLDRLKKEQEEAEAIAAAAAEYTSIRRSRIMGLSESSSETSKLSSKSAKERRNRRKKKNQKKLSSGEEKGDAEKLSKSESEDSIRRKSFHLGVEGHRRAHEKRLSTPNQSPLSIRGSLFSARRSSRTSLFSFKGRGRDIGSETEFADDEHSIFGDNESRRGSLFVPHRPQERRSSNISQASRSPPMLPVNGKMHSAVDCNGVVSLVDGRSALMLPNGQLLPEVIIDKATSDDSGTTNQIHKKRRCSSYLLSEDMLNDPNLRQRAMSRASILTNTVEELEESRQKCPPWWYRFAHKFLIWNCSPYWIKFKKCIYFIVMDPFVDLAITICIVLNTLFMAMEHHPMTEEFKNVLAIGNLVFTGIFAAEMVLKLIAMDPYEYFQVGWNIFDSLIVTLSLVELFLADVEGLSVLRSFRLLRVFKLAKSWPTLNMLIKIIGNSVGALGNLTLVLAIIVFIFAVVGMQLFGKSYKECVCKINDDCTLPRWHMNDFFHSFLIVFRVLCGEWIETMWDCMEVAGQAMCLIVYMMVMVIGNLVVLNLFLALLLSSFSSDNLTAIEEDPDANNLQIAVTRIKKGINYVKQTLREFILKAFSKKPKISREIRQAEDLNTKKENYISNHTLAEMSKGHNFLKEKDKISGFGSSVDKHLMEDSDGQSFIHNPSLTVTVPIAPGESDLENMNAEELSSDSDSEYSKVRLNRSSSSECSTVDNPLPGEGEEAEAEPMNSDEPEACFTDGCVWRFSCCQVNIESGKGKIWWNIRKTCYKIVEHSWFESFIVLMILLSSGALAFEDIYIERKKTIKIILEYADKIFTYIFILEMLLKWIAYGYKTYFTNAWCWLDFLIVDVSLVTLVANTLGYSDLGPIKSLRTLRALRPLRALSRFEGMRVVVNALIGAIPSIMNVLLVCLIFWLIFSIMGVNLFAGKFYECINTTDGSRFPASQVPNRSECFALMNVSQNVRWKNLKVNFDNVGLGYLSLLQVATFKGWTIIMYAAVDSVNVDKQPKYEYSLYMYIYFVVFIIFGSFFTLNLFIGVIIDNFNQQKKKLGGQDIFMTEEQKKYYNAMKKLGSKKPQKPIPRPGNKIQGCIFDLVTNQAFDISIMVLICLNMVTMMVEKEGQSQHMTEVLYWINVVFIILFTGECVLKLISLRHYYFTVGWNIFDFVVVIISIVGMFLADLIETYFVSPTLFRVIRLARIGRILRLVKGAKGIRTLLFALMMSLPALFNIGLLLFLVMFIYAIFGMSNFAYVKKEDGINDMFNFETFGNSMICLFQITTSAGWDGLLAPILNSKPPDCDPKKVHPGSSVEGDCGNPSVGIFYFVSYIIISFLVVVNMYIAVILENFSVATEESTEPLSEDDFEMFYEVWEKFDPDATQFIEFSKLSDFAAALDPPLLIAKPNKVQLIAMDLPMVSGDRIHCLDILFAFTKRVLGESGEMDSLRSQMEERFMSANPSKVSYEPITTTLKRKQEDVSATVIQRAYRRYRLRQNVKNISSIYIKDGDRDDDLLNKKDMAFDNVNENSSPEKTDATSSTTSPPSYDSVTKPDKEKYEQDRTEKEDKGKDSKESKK

[2] = biological target: Sodium channel protein type 5 subunit alpha (Homo sapiens, UniProt Q14524); test: Inhibition of human NaV1.5 at -140 mV holding potential by whole-cell patch clamp assay
Sodium channel protein type 5 subunit alpha, sequence (Q14524 whole entry): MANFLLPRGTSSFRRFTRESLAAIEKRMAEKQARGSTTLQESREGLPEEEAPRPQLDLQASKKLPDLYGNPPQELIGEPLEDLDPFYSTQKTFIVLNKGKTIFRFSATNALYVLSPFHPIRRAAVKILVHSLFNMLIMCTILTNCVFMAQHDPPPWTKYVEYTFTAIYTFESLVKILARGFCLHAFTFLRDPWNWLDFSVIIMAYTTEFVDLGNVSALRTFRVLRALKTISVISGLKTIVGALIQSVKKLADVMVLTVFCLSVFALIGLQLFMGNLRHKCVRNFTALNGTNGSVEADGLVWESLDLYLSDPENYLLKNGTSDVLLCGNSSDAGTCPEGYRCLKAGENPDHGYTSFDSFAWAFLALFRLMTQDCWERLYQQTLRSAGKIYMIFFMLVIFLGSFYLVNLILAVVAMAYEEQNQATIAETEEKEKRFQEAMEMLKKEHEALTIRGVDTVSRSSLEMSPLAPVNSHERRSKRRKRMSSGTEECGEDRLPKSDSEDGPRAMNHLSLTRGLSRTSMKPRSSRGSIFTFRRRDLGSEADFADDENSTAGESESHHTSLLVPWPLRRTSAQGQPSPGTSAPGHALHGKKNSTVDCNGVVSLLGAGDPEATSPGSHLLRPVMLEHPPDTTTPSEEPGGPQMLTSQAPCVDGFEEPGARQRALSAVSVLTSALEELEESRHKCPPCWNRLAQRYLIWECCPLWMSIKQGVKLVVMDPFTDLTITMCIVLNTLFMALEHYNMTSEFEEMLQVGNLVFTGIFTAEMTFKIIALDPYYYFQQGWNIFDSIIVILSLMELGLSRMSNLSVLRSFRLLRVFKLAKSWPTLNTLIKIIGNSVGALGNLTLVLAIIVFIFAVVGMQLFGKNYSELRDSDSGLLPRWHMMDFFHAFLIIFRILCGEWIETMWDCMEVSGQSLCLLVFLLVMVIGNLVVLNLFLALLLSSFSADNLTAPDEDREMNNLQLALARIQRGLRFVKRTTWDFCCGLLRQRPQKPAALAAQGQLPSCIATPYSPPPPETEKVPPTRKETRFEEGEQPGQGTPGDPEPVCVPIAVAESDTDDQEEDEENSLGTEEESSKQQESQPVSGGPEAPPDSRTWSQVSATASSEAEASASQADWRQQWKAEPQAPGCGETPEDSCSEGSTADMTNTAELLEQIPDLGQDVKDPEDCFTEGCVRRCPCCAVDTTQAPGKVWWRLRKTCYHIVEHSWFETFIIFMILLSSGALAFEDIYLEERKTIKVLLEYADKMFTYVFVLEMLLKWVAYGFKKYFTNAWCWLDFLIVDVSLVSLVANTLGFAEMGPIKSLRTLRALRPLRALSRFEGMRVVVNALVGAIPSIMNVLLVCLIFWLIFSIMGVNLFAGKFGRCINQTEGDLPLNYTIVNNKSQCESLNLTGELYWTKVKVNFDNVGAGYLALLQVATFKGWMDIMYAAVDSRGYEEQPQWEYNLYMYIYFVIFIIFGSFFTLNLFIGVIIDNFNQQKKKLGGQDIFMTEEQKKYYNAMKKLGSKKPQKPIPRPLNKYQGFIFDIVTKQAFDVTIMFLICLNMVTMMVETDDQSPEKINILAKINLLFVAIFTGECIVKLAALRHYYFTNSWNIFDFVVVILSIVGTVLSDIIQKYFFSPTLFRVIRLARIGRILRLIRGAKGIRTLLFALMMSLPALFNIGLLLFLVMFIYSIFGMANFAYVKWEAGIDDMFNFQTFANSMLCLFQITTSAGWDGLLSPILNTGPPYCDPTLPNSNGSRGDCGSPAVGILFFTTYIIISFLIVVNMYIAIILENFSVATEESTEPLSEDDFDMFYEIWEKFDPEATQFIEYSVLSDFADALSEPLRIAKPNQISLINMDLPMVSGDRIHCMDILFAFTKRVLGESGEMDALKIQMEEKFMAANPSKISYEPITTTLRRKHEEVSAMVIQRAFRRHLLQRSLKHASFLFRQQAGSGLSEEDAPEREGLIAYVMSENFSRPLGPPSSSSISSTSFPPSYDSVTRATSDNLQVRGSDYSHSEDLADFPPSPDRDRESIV

[3] = biological target: Sodium channel protein type 4 subunit alpha (Homo sapiens, UniProt P35499); test: Inhibition of human NaV1.4 at -140 mV holding potential by whole-cell patch clamp assay
[4] = biological target: Sodium channel protein type 9 subunit alpha (Mus musculus, UniProt Q62205); test: Inhibition of NaV1.7 in C57BL/6 mouse DRG neurons at -140 mV holding potential by whole-cell patch clamp assay
[5] = biological target: T1, Sodium channel protein type 9 subunit alpha; test: Inhibition of human NaV1.7 by patchXpress 700A electrophysiology method
[6] = Stability in human plasma assessed as intact compound remaining at 37 degC after 24 hrs by LC-MS method; format: ADME, cell-free; settings: read-out: Stability
[7] = Stability in mouse plasma assessed as intact compound remaining at 37 degC after 24 hrs by LC-MS method; format: ADME, cell-free; settings: read-out: Stability

Structure (SMILES) | IC50 [1] [µM] | IC50 [2] [µM] | IC50 [3] [µM] | IC50 [4] [µM] | IC50 [5] [µM] | remaining at 24 h [6] [%] | remaining at 24 h [7] [%]
N=C(N)NCCC[C@@H]1NC(=O)[C@H](CO)NC(=O)[C@H](Cc2c[nH]cn2)NC(=O)[C@H](CC(=O)O)NC(=O)[C@H](CCCNC(=N)N)NC(=O)[C@H]2CSSC[C@@H]3NC(=O)[C@@H](N)CSSC[C@H](NC1=O)C(=O)N[C@H](C(=O)O)CSSC[C@H](NC(=O)[C@H](CC(N)=O)NC3=O)C(=O)N[C@@H](CO)C(=O)N[C@@H](CO)C(=O)N[C@@H](CCCCN)C(=O)N[C@@H](Cc1c[nH]c3ccccc13)C(=O)N2 | 0.46 | > 25 | 0.02 | – | – | – | –
CC[C@H](C)[C@H](NC(=O)[C@H](CCC(N)=O)NC(=O)[C@H](Cc1ccc(O)cc1)NC(=O)[C@H](CCCCN)NC(=O)[C@@H]1CSSC[C@@H]2NC(=O)[C@H](CCC(N)=O)NC(=O)[C@H](CC(=O)O)NC(=O)[C@H](CC(N)=O)NC(=O)[C@H](CO)NC(=O)[C@@H]3CCCN3C(=O)[C@H](CC(N)=O)NC(=O)[C@@H]3CSSC[C@H](NC(=O)[C@H](C(C)C)NC(=O)[C@H](CC(C)C)NC(=O)[C@H](CCCCN)NC(=O)[C@H](CO)NC(=O)[C@H](CO)NC(=O)[C@H](CCCCN)NC(=O)[C@H](CSSC[C@H](NC(=O)[C@@H](N)CCC(=O)O)C(=O)N[C@@H](CC(C)C)C(=O)N[C@@H](CCC(=O)O)C(=O)N[C@@H]([C@@H](C)CC)C(=O)N[C@@H](Cc4ccccc4)C(=O)N[C@@H](CCCCN)C(=O)N[C@@H](C)C(=O)N3)NC2=O)C(=O)N[C@@H](CO)C(=O)N[C@@H](CCCNC(=N)N)C(=O)N[C@@H](CCCCN)C(=O)N[C@@H]([C@@H](C)O)C(=O)N[C@@H](CCCNC(=N)N)C(=O)N[C@@H](Cc2c[nH]c3ccccc23)C(=O)N1)C(=O)O | 0.033 | 25 | 3.9 | – | – | – | –
CC[C@H](C)[C@@H]1NC(=O)[C@@H]2CSSC[C@@H]3NC(=O)[C@H](C(C)C)NC(=O)[C@H](CC(C)C)NC(=O)[C@H](CC(N)=O)NC(=O)[C@@H]4CCCN4C(=O)[C@H](CCCNC(=N)N)NC(=O)[C@H](CSSC[C@H](NC(=O)[C@@H](N)CC(=O)O)C(=O)N[C@@H](CC(C)C)C(=O)NCC(=O)N[C@@H](C)C(=O)N[C@@H](CCSC)C(=O)N[C@@H](CCCNC(=N)N)C(=O)N[C@@H](CCCCN)C(=O)N2)NC(=O)[C@H](CSSC[C@@H](C(=O)N[C@@H](CCCCN)C(=O)N[C@@H](Cc2ccc(O)cc2)C(=O)N[C@H](C(=O)N[C@@H](Cc2ccccc2)C(N)=O)C(C)C)NC(=O)[C@H](Cc2c[nH]c4ccccc24)NC(=O)[C@H](CCCCN)NC(=O)[C@H](Cc2cnc[nH]2)NC(=O)[C@H]([C@@H](C)O)NC(=O)[C@H](CCCNC(=N)N)NC(=O)[C@H](CO)NC3=O)NC(=O)[C@H](CCCCN)NC(=O)[C@H](CC(=O)O)NC(=O)[C@H](CC(N)=O)NC(=O)[C@H](CC(=O)O)NC(=O)[C@@H]2CCCN2C1=O (H-DCLGAMRKCIPDNDKCCRPNLVCSRTHKWCKYVF-NH2; disulfide 2-17, 9-23, 16-30) | 0.63 | 27 | – | 0.0226 | 0.027 | 99 | 99
CSCC[C@@H]1NC(=O)CNC(=O)[C@H](CCC(=O)O)NC(=O)[C@@H]2CSSC[C@H](NC(=O)[C@@H](N)Cc3ccc(O)cc3)C(=O)N[C@@H](CCC(N)=O)C(=O)N[C@@H](CCCCN)C(=O)N[C@@H](Cc3c[nH]c4ccccc34)C(=O)N[C@@H](CCSC)C(=O)N[C@@H](Cc3c[nH]c4ccccc34)C(=O)N[C@@H]([C@@H](C)O)C(=O)N[C@H]3CSSC[C@H](NC(=O)[C@H](C(C)C)NC1=O)C(=O)N[C@@H](CCCNC(=N)N)C(=O)N[C@@H](CC(C)C)C(=O)N[C@@H](Cc1c[nH]c4ccccc14)C(=O)N[C@H](C(=O)N[C@@H](CCCCN)C(=O)N[C@@H](CCCCN)C(=O)N[C@@H](CCCCN)C(=O)N[C@@H](CC(C)C)C(=O)N[C@@H](Cc1c[nH]c4ccccc14)C(=O)O)CSSC[C@H](NC(=O)[C@H](CCCCN)NC(=O)[C@H](CCCNC(=N)N)NC(=O)[C@H](CCC(=O)O)NC(=O)[C@H](CO)NC(=O)[C@H](CC(=O)O)NC3=O)C(=O)N2 | – | 0.09 | 0.03 | – | – | – | –
CC[C@H](C)[C@@H]1NC(=O)[C@@H]2CSSC[C@@H]3NC(=O)[C@H](C(C)C)NC(=O)[C@H](CC(C)C)NC(=O)[C@H](CC(N)=O)NC(=O)[C@@H]4CCCN4C(=O)[C@H](CCCNC(=N)N)NC(=O)[C@H](CSSC[C@H](NC(=O)[C@@H](N)CC(=O)O)C(=O)N[C@@H](CC(C)C)C(=O)NCC(=O)N[C@@H](Cc4ccccc4)C(=O)N[C@@H](Cc4ccccc4)C(=O)N[C@@H](CCCNC(=N)N)C(=O)N[C@@H](CCCCN)C(=O)N2)NC(=O)[C@H](CSSC[C@@H](C(=O)N[C@@H](CCCCN)C(=O)N[C@@H](Cc2ccc(O)cc2)C(=O)N[C@H](C(=O)N[C@@H](Cc2ccccc2)C(N)=O)C(C)C)NC(=O)[C@H](Cc2c[nH]c4ccccc24)NC(=O)[C@H](CCCCN)NC(=O)[C@H](Cc2cnc[nH]2)NC(=O)[C@H]([C@@H](C)O)NC(=O)[C@H](CCCNC(=N)N)NC(=O)[C@H](CO)NC3=O)NC(=O)[C@H](CCCCN)NC(=O)[C@H](CC(=O)O)NC(=O)[C@H](CC(N)=O)NC(=O)[C@H](CC(=O)O)NC(=O)[C@@H]2CCCN2C1=O (H-DCLGFFRKCIPDNDKCCRPNLVCSRTHKWCKYVF-NH2; disulfide 2-17, 9-23, 16-30) | 0.019 | 3 | – | – | – | – | –
